# Tested on: herpes viral infections
# Test: treating herpes outbreaks with loperamide taken by mouth
# Type: in vivo
# Details: herpes outbreak; patient taking loperamide
# From the text: Referring to FIG. 1, the present invention may include a new use of loperamide 100 as an anti-viral agent. Herpes, which erupts during stress and may include repeated flare-ups over, sometimes, weeks may be treated with the new use of loperamide 100 disclosed herein, which tends to eliminate this recycling when taken at every flare-up. Specifically, the new use 100 of loperamide as an anti-viral agent may have the following steps: at the onset of symptoms, the user takes the recommended amount at the recommended time intervals, such as two 2 mg loperamide tablets four or five times a day, in step 110; if pain persists, the user may review the dosage, in step 120; after 72 hours, when pain has subsided and blisters are gone or only thin scabs, the patient may discontinue use in step 130; magnesium hydroxide may be used for bowel function during treatment, in step 140; and in the case of a new flare-up, the user-patient may repeat the dosage cycle in step 150.
smiles,measurement,value
CN(C)C(=O)C(CCN1CCC(O)(c2ccc(Cl)cc2)CC1)(c1ccccc1)c1ccccc1 [loperamide],effect on the virus's activity,stop the virus's activity
same,time to full recovery,three
same,time to stop the pain,≤ 30 min

# — patent publication US20200155532A1, “METHOD FOR TREATING VIRAL INFECTIONS WITH LOPERAMIDE” (priority 2018, published 2020)
